Test system: AKT Tyr176-phosphorylation
Assay: Cell fractionation and immunoblotting of pTyr176-AKT in MCF-7 cells
Format: cell-based, human
Settings: MCF-7 cells serum starved 24 h; insulin 50 ng/ml or heregulin 30 ng/ml
Experimental: (§1) FIG. 27 is a blot showing Tyr176-phosphorylation regulates AKT plasma membrane localization. MCF-7 cells were serum starved (24 h) and treated with insulin (50 ng/ml) or for indicated times. Cell lysates were fractionated and IB with the indicated antibodies. Input panels pAck1 (Tyr), pIR(Tyr) and pHER-2(Tyr) represents IP with respective antibodies followed by IB with pTyr antibodies.
as §1, with “28” for “27”, “(C) heregulin (30” for “with insulin (50”, “ng/ml)” for “ng/ml) or”
FIG. 29 is a blot showing Tyr176-phosphorylation regulates AKT plasma membrane localization. MCF7 cells were transfected with control or Ack1-specific siRNAs (40 nM) for 48 h and treated with heregulin for 40 mins. Cell lysates were fractionated and IB with indicated antibodies.
FIG. 34 is a blot showing Tyr176-phosphorylation of AKT is PI3K-independent. MCF-7 cells were pretreated with LY294002 (10 μM, 1 h) followed by heregulin for 40 mins. Cell lysates were fractionated and membrane fraction was subjected to IB with indicated antibodies.
Cell fractionation, immunoprecipitations and kinase assay. […]

Substance	time of optimal AKT Tyr-176 phosphorylation and plasma membrane accumulation [min]
heregulin	40
insulin: growth factor ligand used to stimulate cells	30
